According to PubChem BioAssay AID2060513 (Molecular Pharmacology Branch, DTP, NCI, 2025):

System: 299254-011-R-J1-PDC complex spheroids viability
Experiment: Anticancer human tumor 299254-011-R-J1-PDC patient-derived melanoma cell line growth inhibition [GQUAD]
Conditions: for IC50: curve of first compound; for viability, T/C: stronger effect = lower value; active = viability on the fitted dose curve at most 10% of control; inactive = the rest
In short: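 Multi-cell-type spheroids of tumor cells with HUVEC and mesenchymal stem cells, treated with drug combinations. Concentrations descend in half-log steps from near clinical Cmax, or from 10 microM where Cmax is unknown; viability read-out.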

[1] = second compound 0.0316 µM, first compound 0.0316 µM
[2] = second compound 0.0316 µM, first compound 0.1 µM
[3] = second compound 0.0316 µM, first compound 0.316 µM
[4] = second compound 0.0316 µM, first compound 1 µM
[5] = second compound 0.0316 µM, first compound 3.16 µM
[6] = second compound 0.0316 µM, first compound 10 µM
[7] = second compound 0.1 µM, first compound 0.0316 µM
[8] = second compound 0.1 µM, first compound 0.1 µM
[9] = second compound 0.1 µM, first compound 0.316 µM
[10] = second compound 0.1 µM, first compound 1 µM
[11] = second compound 0.1 µM, first compound 3.16 µM
[12] = second compound 0.1 µM, first compound 10 µM
[13] = second compound 0.316 µM, first compound 0.0316 µM
[14] = second compound 0.316 µM, first compound 0.1 µM
[15] = second compound 0.316 µM, first compound 0.316 µM
[16] = second compound 0.316 µM, first compound 1 µM
[17] = second compound 0.316 µM, first compound 3.16 µM
[18] = second compound 0.316 µM, first compound 10 µM
[19] = second compound 1 µM, first compound 0.0316 µM
[20] = second compound 1 µM, first compound 0.1 µM
[21] = second compound 1 µM, first compound 0.316 µM
[22] = second compound 1 µM, first compound 1 µM
[23] = second compound 1 µM, first compound 3.16 µM
[24] = second compound 1 µM, first compound 10 µM
[25] = second compound 3.16 µM, first compound 0.0316 µM
[26] = second compound 3.16 µM, first compound 0.1 µM
[27] = second compound 3.16 µM, first compound 0.316 µM
[28] = second compound 3.16 µM, first compound 1 µM
[29] = second compound 3.16 µM, first compound 3.16 µM
[30] = second compound 3.16 µM, first compound 10 µM
[31] = second compound 10 µM, first compound 0.0316 µM
[32] = second compound 10 µM, first compound 0.1 µM
[33] = second compound 10 µM, first compound 0.316 µM
[34] = second compound 10 µM, first compound 1 µM
[35] = second compound 10 µM, first compound 3.16 µM
[36] = second compound 10 µM, first compound 10 µM
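Note: spheroids exposed to the agents for seven days before readout.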
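Throughout, for viability, T/C: percent viability relative to DMSO vehicle control wells = 100%.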

C#Cc1c(F)ccc2cc(O)cc(-c3ncc4c(N5CC6CCC(C5)N6)nc(OCC56CCCN5CC(F)C6)nc4c3F)c12 (stereo not given) + Cc1[nH]c2ccc(F)cc2c1-c1nc2c3cccnc3c3ncccc3c2[nH]1
inactive: viability, T/C [1] 109% | viability, T/C [2] 102% | viability, T/C [3] 87.9% | viability, T/C [4] 102% | viability, T/C [5] 90.8% | viability, T/C [6] 72.5% | viability, T/C [7] 83.1% | viability, T/C [8] 103% | viability, T/C [9] 103% | viability, T/C [10] 100% | viability, T/C [11] 103% | viability, T/C [12] 72.9% | viability, T/C [13] 89.4% | viability, T/C [14] 102% | viability, T/C [15] 88.8% | viability, T/C [16] 86.6% | viability, T/C [17] 111% | viability, T/C [18] 75.7% | viability, T/C [19] 129% | viability, T/C [20] 95.2% | viability, T/C [21] 116% | viability, T/C [22] 104% | viability, T/C [23] 86.6% | viability, T/C [24] 80.8% | viability, T/C [25] 102% | viability, T/C [26] 112% | viability, T/C [27] 97.2% | viability, T/C [28] 88.9% | viability, T/C [29] 114% | viability, T/C [30] 91.7% | viability, T/C [31] 87.2% | viability, T/C [32] 100% | viability, T/C [33] 98.4% | viability, T/C [34] 99.1% | viability, T/C [35] 105% | viability, T/C [36] 95.6%
> 10 µM: IC50 (second compound 0.0316 µM) | IC50 (second compound 0.1 µM) | IC50 (second compound 0.316 µM) | IC50 (second compound 1 µM) | IC50 (second compound 3.16 µM) | IC50 (second compound 10 µM)

CC(=O)O[C@H]1C(=O)[C@@]2(C)[C@H]([C@H](OC(=O)c3ccccc3)[C@]3(O)C[C@H](OC(=O)[C@H](O)[C@@H](NC(=O)c4ccccc4)c4ccccc4)C(C)=C1C3(C)C)[C@]1(OC(C)=O)CO[C@@H]1C[C@@H]2O + Cc1[nH]c2ccc(F)cc2c1-c1nc2c3cccnc3c3ncccc3c2[nH]1
0.445 µM: IC50 (second compound 0.316 µM)
0.274 µM: IC50 (second compound 0.1 µM)
0.405 µM: IC50 (second compound 10 µM)
0.531 µM: IC50 (second compound 3.16 µM)
0.506 µM: IC50 (second compound 1 µM)
inactive: viability, T/C [1] 90.7% | viability, T/C [2] 82% | viability, T/C [3] 58.2% | viability, T/C [4] 31.2% | viability, T/C [5] 18% | viability, T/C [6] 15.5% | viability, T/C [7] 86.8% | viability, T/C [8] 94.6% | viability, T/C [9] 44.2% | viability, T/C [10] 35.9% | viability, T/C [11] 20.7% | viability, T/C [12] 13.9% | viability, T/C [13] 104% | viability, T/C [14] 86.1% | viability, T/C [15] 57.2% | viability, T/C [16] 33.4% | viability, T/C [17] 19.2% | viability, T/C [18] 17.3% | viability, T/C [19] 89.6% | viability, T/C [20] 92.6% | viability, T/C [21] 50.1% | viability, T/C [22] 43.1% | viability, T/C [23] 21.2% | viability, T/C [24] 17.4% | viability, T/C [25] 83.3% | viability, T/C [26] 84.2% | viability, T/C [27] 58.2% | viability, T/C [28] 38.7% | viability, T/C [29] 22.8% | viability, T/C [30] 21.6% | viability, T/C [31] 87.6% | viability, T/C [32] 84.5% | viability, T/C [33] 48.3% | viability, T/C [34] 40.3% | viability, T/C [35] 23.7% | viability, T/C [36] 22.8%
0.448 µM: IC50 (second compound 0.0316 µM)

CCCS(=O)(=O)Nc1ccc(F)c(C(=O)c2c[nH]c3ncc(-c4ccc(Cl)cc4)cc23)c1F + Cc1[nH]c2ccc(F)cc2c1-c1nc2c3cccnc3c3ncccc3c2[nH]1
7.26 µM: IC50 (second compound 1 µM)
8.05 µM: IC50 (second compound 0.316 µM)
8.45 µM: IC50 (second compound 0.0316 µM)
inactive: viability, T/C [1] 91.6% | viability, T/C [2] 109% | viability, T/C [3] 109% | viability, T/C [4] 88.3% | viability, T/C [5] 76.8% | viability, T/C [6] 45.4% | viability, T/C [7] 98.6% | viability, T/C [8] 110% | viability, T/C [9] 100% | viability, T/C [10] 82.7% | viability, T/C [11] 105% | viability, T/C [12] 41.9% | viability, T/C [13] 86.6% | viability, T/C [14] 123% | viability, T/C [15] 110% | viability, T/C [16] 108% | viability, T/C [17] 90.7% | viability, T/C [18] 40.4% | viability, T/C [19] 94.8% | viability, T/C [20] 103% | viability, T/C [21] 84.1% | viability, T/C [22] 107% | viability, T/C [23] 79.7% | viability, T/C [24] 38.6% | viability, T/C [25] 91.4% | viability, T/C [26] 109% | viability, T/C [27] 92.3% | viability, T/C [28] 115% | viability, T/C [29] 82.6% | viability, T/C [30] 40.7% | viability, T/C [31] 81.3% | viability, T/C [32] 108% | viability, T/C [33] 101% | viability, T/C [34] 105% | viability, T/C [35] 88.8% | viability, T/C [36] 35.8%
8.51 µM: IC50 (second compound 0.1 µM)
7.74 µM: IC50 (second compound 3.16 µM)
7.38 µM: IC50 (second compound 10 µM)

O=C(NO)c1cnc(N2CCN(S(=O)(=O)c3ccc4ccccc4c3)CC2)nc1 + Cc1[nH]c2ccc(F)cc2c1-c1nc2c3cccnc3c3ncccc3c2[nH]1
1.53 µM: IC50 (second compound 1 µM)
1.3 µM: IC50 (second compound 3.16 µM)
0.602 µM: IC50 (second compound 0.1 µM)
1.48 µM: IC50 (second compound 10 µM)
0.496 µM: IC50 (second compound 0.0316 µM)
0.988 µM: IC50 (second compound 0.316 µM)
inactive: viability, T/C [1] 119% | viability, T/C [2] 98% | viability, T/C [3] 76.8% | viability, T/C [4] 9.39% | viability, T/C [7] 99.2% | viability, T/C [8] 111% | viability, T/C [9] 90.2% | viability, T/C [10] 18.1% | viability, T/C [13] 91.4% | viability, T/C [14] 102% | viability, T/C [15] 88.8% | viability, T/C [16] 50.3% | viability, T/C [19] 112% | viability, T/C [20] 91.6% | viability, T/C [21] 80.9% | viability, T/C [22] 79.2% | viability, T/C [25] 99.2% | viability, T/C [26] 120% | viability, T/C [27] 108% | viability, T/C [28] 64.5% | viability, T/C [31] 87.8% | viability, T/C [32] 103% | viability, T/C [33] 99.6% | viability, T/C [34] 75.4%
active: viability, T/C [5] 0.24% | viability, T/C [6] 0.27% | viability, T/C [11] 0.2% | viability, T/C [12] 0.25% | viability, T/C [17] 0.17% | viability, T/C [18] 0.21% | viability, T/C [23] 0.19% | viability, T/C [24] 0.22% | viability, T/C [29] 0.22% | viability, T/C [30] 0.21% | viability, T/C [35] 0.25% | viability, T/C [36] 0.25%

O=c1[nH]cc(F)c(=O)[nH]1 + Cc1[nH]c2ccc(F)cc2c1-c1nc2c3cccnc3c3ncccc3c2[nH]1
inactive: viability, T/C [1] 131% | viability, T/C [2] 114% | viability, T/C [3] 113% | viability, T/C [4] 121% | viability, T/C [5] 116% | viability, T/C [6] 125% | viability, T/C [7] 120% | viability, T/C [8] 105% | viability, T/C [9] 110% | viability, T/C [10] 123% | viability, T/C [11] 98.3% | viability, T/C [12] 123% | viability, T/C [13] 104% | viability, T/C [14] 99.6% | viability, T/C [15] 119% | viability, T/C [16] 100% | viability, T/C [17] 97.5% | viability, T/C [18] 97.8% | viability, T/C [19] 88.3% | viability, T/C [20] 98.6% | viability, T/C [21] 106% | viability, T/C [22] 108% | viability, T/C [23] 116% | viability, T/C [24] 106% | viability, T/C [25] 99.3% | viability, T/C [26] 107% | viability, T/C [27] 96% | viability, T/C [28] 113% | viability, T/C [29] 90.4% | viability, T/C [30] 107% | viability, T/C [31] 96.4% | viability, T/C [32] 96.5% | viability, T/C [33] 92.1% | viability, T/C [34] 102% | viability, T/C [35] 98.9% | viability, T/C [36] 88%
> 10 µM: IC50 (second compound 0.0316 µM) | IC50 (second compound 0.1 µM) | IC50 (second compound 0.316 µM) | IC50 (second compound 1 µM) | IC50 (second compound 3.16 µM) | IC50 (second compound 10 µM)
